Assay results from paper PMC4685510, “A Cell Biologist’s Field Guide to Aurora Kinase Inhibitors” (Frontiers in Oncology, 2015).

Legend:
Experiment in all cases: biochemical
Format in all cases: biochemical
[1] = target: 363 human kinases (including Aurora A/B/C) (Homo sapiens, UniProt P22455); conditions: FGFR4, [ATP] 100 µM; for remaining activity at 0.1 µM: 100 nM; for remaining activity at 0.1 µM / remaining activity at 0.5 µM: read-out: % Enzyme Activity (relative to DMSO controls)
Source text: (§1) However, the Aurora A/B selectivity ratios derived from our in vitro and in vivo data can be compared to prioritize inhibitors.

[2] = target: T1, 363 human kinases (including Aurora A/B/C) (Homo sapiens, UniProt P35626); conditions: GRK3; for remaining activity at 0.1 µM: 100 nM; for remaining activity at 0.1 µM / remaining activity at 0.5 µM: read-out: % Enzyme Activity (relative to DMSO controls)
T1 sequence (P35626 1-688): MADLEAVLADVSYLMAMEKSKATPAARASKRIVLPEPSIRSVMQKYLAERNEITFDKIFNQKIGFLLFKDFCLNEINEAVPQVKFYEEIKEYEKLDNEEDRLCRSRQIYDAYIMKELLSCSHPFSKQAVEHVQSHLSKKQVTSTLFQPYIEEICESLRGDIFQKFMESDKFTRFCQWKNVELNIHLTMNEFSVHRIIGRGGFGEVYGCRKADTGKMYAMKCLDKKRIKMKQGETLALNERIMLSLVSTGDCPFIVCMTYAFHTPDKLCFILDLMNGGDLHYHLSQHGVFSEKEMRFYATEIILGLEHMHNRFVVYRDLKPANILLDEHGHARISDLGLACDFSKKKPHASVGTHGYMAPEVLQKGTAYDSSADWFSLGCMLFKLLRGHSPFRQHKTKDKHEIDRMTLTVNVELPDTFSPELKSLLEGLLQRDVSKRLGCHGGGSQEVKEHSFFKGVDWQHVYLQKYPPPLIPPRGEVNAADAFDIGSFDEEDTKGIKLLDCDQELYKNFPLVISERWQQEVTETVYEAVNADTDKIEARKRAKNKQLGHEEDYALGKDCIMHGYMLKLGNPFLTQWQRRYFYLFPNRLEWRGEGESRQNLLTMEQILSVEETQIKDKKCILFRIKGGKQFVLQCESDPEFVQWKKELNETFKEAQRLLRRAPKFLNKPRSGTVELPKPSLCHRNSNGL
Source text: as §1

[3] = target: T2, 363 human kinases (including Aurora A/B/C) (Homo sapiens, UniProt O15264); conditions: P38d/MAPK13; for remaining activity at 0.1 µM: 100 nM; for remaining activity at 0.1 µM / remaining activity at 0.5 µM: read-out: % Enzyme Activity (relative to DMSO controls)
T2 sequence (O15264 1-365): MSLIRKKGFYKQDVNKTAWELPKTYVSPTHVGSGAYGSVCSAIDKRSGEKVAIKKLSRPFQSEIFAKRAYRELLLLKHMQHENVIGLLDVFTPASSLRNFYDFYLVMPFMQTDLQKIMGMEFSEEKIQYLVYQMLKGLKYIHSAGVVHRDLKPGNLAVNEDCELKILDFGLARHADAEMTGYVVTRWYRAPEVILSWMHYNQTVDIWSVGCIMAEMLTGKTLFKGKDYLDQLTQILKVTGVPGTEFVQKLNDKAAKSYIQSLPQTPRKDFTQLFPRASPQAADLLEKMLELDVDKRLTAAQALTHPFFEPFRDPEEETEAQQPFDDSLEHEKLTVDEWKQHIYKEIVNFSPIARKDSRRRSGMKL
Source text: as §1

[4] = target: T3, 363 human kinases (including Aurora A/B/C) (Homo sapiens, UniProt Q8IWQ3); conditions: BRSK2, [ATP] 50 µM; for remaining activity at 0.1 µM: 100 nM; for remaining activity at 0.1 µM / remaining activity at 0.5 µM: read-out: % Enzyme Activity (relative to DMSO controls)
T3 sequence (Q8IWQ3 1-736): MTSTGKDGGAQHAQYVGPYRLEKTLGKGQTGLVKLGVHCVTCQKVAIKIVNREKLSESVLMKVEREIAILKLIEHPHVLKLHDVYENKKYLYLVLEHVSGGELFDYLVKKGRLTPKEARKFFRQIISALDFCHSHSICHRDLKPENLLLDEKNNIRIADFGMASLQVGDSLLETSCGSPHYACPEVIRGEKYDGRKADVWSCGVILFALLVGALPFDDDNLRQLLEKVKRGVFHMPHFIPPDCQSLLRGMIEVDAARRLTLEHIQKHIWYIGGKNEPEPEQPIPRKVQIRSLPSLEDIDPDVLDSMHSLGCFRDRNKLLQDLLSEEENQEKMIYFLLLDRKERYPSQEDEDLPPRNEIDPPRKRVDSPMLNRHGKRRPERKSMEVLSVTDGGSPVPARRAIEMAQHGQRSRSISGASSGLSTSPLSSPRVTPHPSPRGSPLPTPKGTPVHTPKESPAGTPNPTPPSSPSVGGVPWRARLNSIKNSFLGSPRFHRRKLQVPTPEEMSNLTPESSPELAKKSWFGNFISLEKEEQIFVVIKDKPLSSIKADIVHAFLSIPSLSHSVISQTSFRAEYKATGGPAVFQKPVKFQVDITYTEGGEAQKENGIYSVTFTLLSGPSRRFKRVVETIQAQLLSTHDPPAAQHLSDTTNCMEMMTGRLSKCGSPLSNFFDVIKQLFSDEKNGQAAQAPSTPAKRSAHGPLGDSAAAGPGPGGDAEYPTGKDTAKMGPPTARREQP
Source text: as §1

[5] = target: 363 human kinases (including Aurora A/B/C) (Homo sapiens, UniProt P53779); conditions: JNK3; for remaining activity at 0.1 µM: 100 nM; for remaining activity at 0.1 µM / remaining activity at 0.5 µM: read-out: % Enzyme Activity (relative to DMSO controls)
Chain of 363 human kinases (including Aurora A/B/C) (Homo sapiens, UniProt P53779) (P53779 whole entry): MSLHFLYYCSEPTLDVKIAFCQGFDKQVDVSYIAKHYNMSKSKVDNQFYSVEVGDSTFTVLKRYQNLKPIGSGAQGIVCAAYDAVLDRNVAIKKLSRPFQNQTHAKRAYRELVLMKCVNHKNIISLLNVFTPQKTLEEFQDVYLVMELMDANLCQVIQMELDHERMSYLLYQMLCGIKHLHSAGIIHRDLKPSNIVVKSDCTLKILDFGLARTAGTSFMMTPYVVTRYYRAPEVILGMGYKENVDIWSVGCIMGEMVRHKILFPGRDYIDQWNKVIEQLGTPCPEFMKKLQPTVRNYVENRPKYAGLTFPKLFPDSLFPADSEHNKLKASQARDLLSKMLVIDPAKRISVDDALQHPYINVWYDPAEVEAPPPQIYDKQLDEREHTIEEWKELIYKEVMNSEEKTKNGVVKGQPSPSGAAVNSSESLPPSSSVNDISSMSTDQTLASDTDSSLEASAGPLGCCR
Source text: as §1

[6] = target: 363 human kinases (including Aurora A/B/C) (Homo sapiens, UniProt P06213); conditions: IR; for remaining activity at 0.1 µM: 100 nM; for remaining activity at 0.1 µM / remaining activity at 0.5 µM: read-out: % Enzyme Activity (relative to DMSO controls)
Chain of 363 human kinases (including Aurora A/B/C) (Homo sapiens, UniProt P06213) (P06213 28-1382): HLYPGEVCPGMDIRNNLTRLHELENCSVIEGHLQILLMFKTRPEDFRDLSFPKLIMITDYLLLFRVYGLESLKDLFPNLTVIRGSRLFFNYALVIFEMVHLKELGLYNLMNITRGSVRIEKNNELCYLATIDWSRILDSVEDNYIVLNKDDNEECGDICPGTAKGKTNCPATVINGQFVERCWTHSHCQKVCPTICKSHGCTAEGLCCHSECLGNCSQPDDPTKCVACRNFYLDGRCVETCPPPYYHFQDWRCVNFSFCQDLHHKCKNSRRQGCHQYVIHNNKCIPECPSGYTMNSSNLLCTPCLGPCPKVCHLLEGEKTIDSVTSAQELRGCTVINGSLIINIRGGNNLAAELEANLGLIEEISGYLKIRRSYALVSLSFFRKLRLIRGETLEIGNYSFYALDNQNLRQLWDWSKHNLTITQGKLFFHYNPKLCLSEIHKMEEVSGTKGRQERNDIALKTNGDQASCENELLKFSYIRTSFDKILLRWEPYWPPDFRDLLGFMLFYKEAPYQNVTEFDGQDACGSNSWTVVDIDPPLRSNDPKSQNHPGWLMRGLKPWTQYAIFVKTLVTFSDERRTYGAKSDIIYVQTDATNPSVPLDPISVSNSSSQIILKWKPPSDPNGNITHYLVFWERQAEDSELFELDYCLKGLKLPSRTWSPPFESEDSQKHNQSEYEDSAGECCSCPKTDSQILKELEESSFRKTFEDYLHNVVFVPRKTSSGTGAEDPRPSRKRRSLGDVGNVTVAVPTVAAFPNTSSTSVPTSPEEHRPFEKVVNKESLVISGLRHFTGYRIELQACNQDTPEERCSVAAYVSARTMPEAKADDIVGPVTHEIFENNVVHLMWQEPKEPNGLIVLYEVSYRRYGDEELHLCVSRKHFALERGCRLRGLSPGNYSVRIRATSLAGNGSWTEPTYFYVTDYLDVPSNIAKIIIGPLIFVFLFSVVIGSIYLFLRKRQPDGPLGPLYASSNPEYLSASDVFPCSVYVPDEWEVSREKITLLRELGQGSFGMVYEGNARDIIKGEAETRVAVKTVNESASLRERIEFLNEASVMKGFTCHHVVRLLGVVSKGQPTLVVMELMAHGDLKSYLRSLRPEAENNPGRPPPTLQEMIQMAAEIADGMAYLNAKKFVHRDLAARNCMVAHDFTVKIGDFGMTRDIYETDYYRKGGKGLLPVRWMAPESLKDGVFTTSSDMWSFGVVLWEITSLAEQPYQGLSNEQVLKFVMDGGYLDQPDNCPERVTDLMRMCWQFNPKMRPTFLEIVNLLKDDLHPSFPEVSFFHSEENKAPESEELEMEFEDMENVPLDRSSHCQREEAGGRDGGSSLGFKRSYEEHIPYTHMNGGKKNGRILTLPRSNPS
Source text: as §1

[7] = target: 363 human kinases (including Aurora A/B/C) (Homo sapiens, UniProt P48729); conditions: CK1a1, [ATP] 20 µM; for remaining activity at 0.1 µM: 100 nM; for remaining activity at 0.1 µM / remaining activity at 0.5 µM: read-out: % Enzyme Activity (relative to DMSO controls)
Chain of 363 human kinases (including Aurora A/B/C) (Homo sapiens, UniProt P48729) (P48729 whole entry): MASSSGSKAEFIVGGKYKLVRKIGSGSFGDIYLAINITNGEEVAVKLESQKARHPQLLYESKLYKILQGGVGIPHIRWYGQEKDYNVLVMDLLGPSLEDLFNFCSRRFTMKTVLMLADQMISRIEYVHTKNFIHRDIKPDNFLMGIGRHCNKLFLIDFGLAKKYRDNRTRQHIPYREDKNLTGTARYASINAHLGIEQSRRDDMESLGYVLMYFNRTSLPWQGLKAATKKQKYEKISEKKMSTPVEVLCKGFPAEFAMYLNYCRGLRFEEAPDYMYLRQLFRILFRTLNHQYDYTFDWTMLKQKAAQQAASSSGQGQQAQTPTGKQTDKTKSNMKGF
Source text: as §1

[8] = target: 363 human kinases (including Aurora A/B/C) (Homo sapiens, UniProt O94921); conditions: CDK14/cyclin Y (PFTK1), [ATP] 10 µM; for remaining activity at 0.1 µM: 100 nM; for remaining activity at 0.1 µM / remaining activity at 0.5 µM: read-out: % Enzyme Activity (relative to DMSO controls)
Chain of 363 human kinases (including Aurora A/B/C) (Homo sapiens, UniProt O94921) (O94921 whole entry): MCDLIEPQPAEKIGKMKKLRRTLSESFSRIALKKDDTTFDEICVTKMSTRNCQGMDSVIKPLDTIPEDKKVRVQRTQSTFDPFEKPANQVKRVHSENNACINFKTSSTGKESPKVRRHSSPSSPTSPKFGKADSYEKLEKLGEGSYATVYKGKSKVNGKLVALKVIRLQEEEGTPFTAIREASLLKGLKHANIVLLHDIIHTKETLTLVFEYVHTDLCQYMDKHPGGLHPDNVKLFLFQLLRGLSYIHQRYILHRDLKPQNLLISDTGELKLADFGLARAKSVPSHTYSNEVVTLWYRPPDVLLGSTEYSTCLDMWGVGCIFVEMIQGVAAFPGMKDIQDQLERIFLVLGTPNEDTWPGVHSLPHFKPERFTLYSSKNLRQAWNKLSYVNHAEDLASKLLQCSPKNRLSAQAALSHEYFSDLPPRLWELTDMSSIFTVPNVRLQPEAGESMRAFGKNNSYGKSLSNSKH
Source text: as §1

Chain of 363 human kinases (including Aurora A/B/C) (Homo sapiens, UniProt P22455) (P22455 22-802): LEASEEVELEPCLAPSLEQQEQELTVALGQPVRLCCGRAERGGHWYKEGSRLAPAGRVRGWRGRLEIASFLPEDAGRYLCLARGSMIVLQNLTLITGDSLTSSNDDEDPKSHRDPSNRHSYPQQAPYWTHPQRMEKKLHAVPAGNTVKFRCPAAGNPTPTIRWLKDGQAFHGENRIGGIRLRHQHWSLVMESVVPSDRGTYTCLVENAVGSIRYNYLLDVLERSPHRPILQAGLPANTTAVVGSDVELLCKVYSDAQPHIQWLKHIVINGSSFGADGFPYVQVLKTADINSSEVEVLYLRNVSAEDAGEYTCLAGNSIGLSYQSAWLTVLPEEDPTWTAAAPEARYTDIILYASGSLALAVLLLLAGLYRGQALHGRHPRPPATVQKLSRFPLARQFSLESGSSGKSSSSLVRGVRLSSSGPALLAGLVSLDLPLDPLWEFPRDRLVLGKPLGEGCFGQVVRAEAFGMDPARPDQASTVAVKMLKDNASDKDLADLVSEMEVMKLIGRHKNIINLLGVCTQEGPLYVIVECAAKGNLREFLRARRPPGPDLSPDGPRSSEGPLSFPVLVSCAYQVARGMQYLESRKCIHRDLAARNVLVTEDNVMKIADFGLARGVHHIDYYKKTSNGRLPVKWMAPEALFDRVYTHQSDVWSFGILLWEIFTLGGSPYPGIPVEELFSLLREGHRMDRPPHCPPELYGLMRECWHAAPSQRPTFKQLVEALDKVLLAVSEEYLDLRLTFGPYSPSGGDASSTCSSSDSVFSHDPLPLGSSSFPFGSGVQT

SMILES	remaining activity at 0.1 µM [1] [%]	remaining activity at 0.1 µM [2] [%]	remaining activity at 0.1 µM [3] [%]	remaining activity at 0.1 µM [4] [%]	remaining activity at 0.1 µM [5] [%]	remaining activity at 0.1 µM [6] [%]	remaining activity at 0.1 µM [7] [%]	remaining activity at 0.1 µM [8] [%]	remaining activity at 0.5 µM ([1]; 500 nM) [%]	remaining activity at 0.5 µM ([2]; 500 nM) [%]	remaining activity at 0.5 µM ([3]; 500 nM) [%]	remaining activity at 0.5 µM ([4]; 500 nM) [%]	remaining activity at 0.5 µM ([5]; 500 nM) [%]	remaining activity at 0.5 µM ([6]; 500 nM) [%]	remaining activity at 0.5 µM ([7]; 500 nM) [%]	remaining activity at 0.5 µM ([8]; 500 nM) [%]	further results
CCn1cc(-c2ccnc3[nH]c(-c4cccc(CN(C)C)c4)cc23)c(-c2ccc(NC(=O)N(C)C)cc2)n1 [GSK1070916]	125	98.2	91.7	88.4	94	97.8	103	108	–	–	–	–	–	–	–	–	–
O=C(O)[C@]1(Cc2cccc(Nc3nccs3)n2)CC[C@@H](Oc2cccc(Cl)c2F)CC1 [MK-5108]	91.7	101	98.5	92.7	96.1	98.3	89	102	126	101	82.6	78.7	98.7	80.5	101	103	–
O=C(c1cccc(Cl)c1F)N1CCN(Cc2cccc(Nc3nccs3)n2)CC1 [MK-8745]	–	–	–	–	–	–	–	–	118	101	100	109	78.8	91.1	99.8	104	% Enzyme Activity (relative to DMSO controls) ([1]; 500 nM): 106.52%; % Enzyme Activity (relative to DMSO controls) ([2]; 500 nM): 99.18%; % Enzyme Activity (relative to DMSO controls) ([3]; 500 nM): 96.82%; % Enzyme Activity (relative to DMSO controls) ([4]; 500 nM): 107.67%; % Enzyme Activity (relative to DMSO controls) ([5]; 500 nM): 78.39%; % Enzyme Activity (relative to DMSO controls) ([6]; 500 nM): 89.30%; % Enzyme Activity (relative to DMSO controls) ([7]; 500 nM): 99.17%; % Enzyme Activity (relative to DMSO controls) ([8]; 500 nM): 102.17%
